Data as given in patent US12097213B2, “Sequential treatment of cancers using 6-thio-dG, checkpoint inhibitors and radiation therapy” (The Board of Regents of the University of Texas System, priority 2020, dated 2024).

Key:
[1] = tested on: A375 human melanoma cancer cells; assay: Cell viability assay (CellTiter 96), A375; type: cell-based; conditions: treated for 4 days
Description: Cell viability assay. For determination of IC50 with cell proliferation assays, murine and human cancer cell lines were screened with 6-thio-dG with a 2-fold dilution series in 8 different points in 96-well plates. Cells were plated 24 hrs prior to the addition of drug, incubated for 4-5 days, and assayed using CellTiter 96® Aqueous One Solution Cell Proliferation Assay according to the manufacturer's instructions (Promega). Cell number per well ranged from 1,000 to 10,000 cells per well inversely proportional to doubling times. Dose response curves were generated and IC50s calculated using Graphpad Prism. All samples were analyzed in triplicate and standard deviations are from 2-3 independent experiments.

[2] = tested on: MC38 tumor cells; assay: MC38 tumor growth and treatment in mice; type: in vivo, mouse
Description: Tumor growth and treatment. A total of 5×10^5 MC38, 5×10^5 CT26 or 1×10^6 LLC cells were inoculated subcutaneously into right dorsal flanks of the mice in 100 μL phosphate buffered saline (PBS). Tumor-bearing mice were randomly grouped into treatment groups when tumors grew to around 100 mm^3. For 6-thio-dG single treatment, 3 mg/kg 6-thio-dG was intraperitoneally given on days 7, 8 and 9 in MC38 tumor and LLC tumor and on days 5, 6, 7 for CT26 tumor. For CSF1R, NKL.1, CD4+ and CD8+ T cell depletion, 200 μg of antibodies were intraperitoneally injected 1 day before treatment initiation and then twice a week for 2 weeks. For PD-L1 blockade combination therapy in MC38 model, 6-thio-dG was given on day 10 and day 11, 50 μg PD-L1 was intraperitoneally injected on day 13 and 17. For PD-L1 blockade combination therapy in LLC model, 6-thio-dG was given on day 4, 5, 6, 10 and 11, 200 μg PD-L1 was intraperitoneally injected on day 8 and 13. Tumor volumes were measured by the length (a), width (b) and height (h) and calculated as tumor volume=abh/2.

[3] = tested on: TBK1; assay: Immunoblotting of DCs after co-culture; type: cell-based, mouse; conditions: co-culture 6 hrs with MC38 pretreated with 0.2 μM or 1 μM 6-thio-dG
Description: Immunoblotting. BMDC and MC38 treatment were same as “In vitro co-culture of bone marrow dendritic cells”. 6 hrs after co-culture, DC was isolated with CD11c+ positive selection kit (Stemcell). Protein sample preparation and immunoblot procedures were performed as previously described (Liu et al., 2019). Proteins were detected with rabbit monoclonal antibodies for pSTING (Cell signaling, 72971), STING (Cell signaling, 50494), pTBK1 (Cell signaling, 5483), TBK1 (Cell signaling, 3504). Protein loading was determined with antibodies against with Cyclophilin A (Cell signaling, 2175). Anti-rabbit (1:2000 in 5% BSA) was used for secondary antibody (Cell signaling, 7074). X-ray film (GeneMate, F-9024-8X10) was used to develop the membranes. Clarity Max Western ECL Substrate (Biorad, 1705062) or Supersignal West PicoPlus Chemiluminescent Substrate (Thermoscientific, 34577) was used for chemiluminescent western blot.

[4] = tested on: A375 tumor cells; assay: A375 tumor model in NSG-SGM3 and humanized NSG-SGM3 mice; type: in vivo, mouse
Description: FIGS. 13A-F (related to FIGS. 6A-E). (FIGS. 13A-C) 12 weeks after humanized mouse reconstitution, human CD45+ cells and CD3+ T cells in mouse peripheral blood were tested by flow cytometry. (FIG. 13D) Cell viability (IC50) of 6-thio-dG in A375 human melanoma cancer cells. Cells were treated with 6-thio-dG for 4 days. (FIG. 13E) NSG-SGM3 mice (n=5) were inoculated with 2×10^6 A375 tumor cells and treated with 6-thio-dG (3 mg/kg, day 7 and day 8) or anti-PD-L1 plus anti-CTLA-4 (200 μg i.p., day 10 and day 13) or the combination of 6-thio-dG plus anti-PD-L1 and anti-CTLA-4. Tumor growth was measured every 3 days. (FIG. 13F) Humanized NSG-SGM3 mice (n=5-7) were inoculated with 2×10^6 A375 tumor cells and treated with 6-thio-dG (3 mg/kg, day 13 and day 14) or anti-PD-L1 plus anti-CTLA-4 (200 μg i.p., day 16 and day 19) or the combination of 6-thio-dG plus anti-PD-L1 and anti-CTLA-4. Tumor growth was measured every 3 days. Data were shown as mean±SEM. P value was determined by two-tailed unpaired t test (FIGS. 13B and 13C, n.s. p>0.05) or two-way ANOVA (FIG. 13F).
Humanized mouse tumor models. Humanized mouse reconstitution was previously described (Qiao et al., 2019). Briefly, four-week-old NSG-SGM3 female mice were irradiated with 100 cGy (X-ray irradiation with X-RAD 320 irradiator) one day prior to human CD34+ cells transfer. […] Tumor volumes were measured twice a week. […]

[5] = tested on: tumor cells; assay: Autophagy in tumor cells (data not shown); type: cell-based; conditions: after 6-thio-dG treatment
[6] = tested on: tumor-derived xenograft models; conditions: many tumor-derived xenograft models; cited from earlier work

With `Nc1nc2c(ncn2[C@H]2C[C@H](O)[C@@H](CO)O2)c(=S)[nH]1` [6-thio-dG, 6-thio-2′-deoxyguanosine] the “sensitivity in vitro (cell viability)” value [1] was “sensitive”, the “therapeutic effect on tumor growth with CD4+ T cell depletion” value ([2]; 200 μg anti-CD4, 3 mg/kg, days 7, 8, 9) was “marginal influence” and the “therapeutic effect on tumor growth with CD8+ T cell depletion” value ([2]; 200 μg anti-CD8, 3 mg/kg, days 7, 8, 9) was “completely abolished”. For the same compound, the “tumor growth with macrophage depletion” value ([2]; 200 μg anti-CSF1R, 3 mg/kg, days 7, 8, 9) was “worked even better”, the “therapeutic effect with NK cell depletion” value ([2]; 200 μg anti-NK1.1, 3 mg/kg, days 7, 8, 9) was “did not see an impact” and the tumor growth ([2]; Batf3 deficient mice, 3 mg/kg, days 7, 8, 9) was “partially delayed tumor growth but was significantly less effective compared with WT mice”. For the same compound, the mice tumor free ([2]; Batf3−/− mice) was “none”, the anti-tumor effect ([2]; Ifnar1−/− mice, 3 mg/kg, days 7, 8, 9) was “abolished” and the tumor growth ([2]; Mb21d1KO MC38 tumor cells in C57BL/6 mice, 3 mg/kg, days 7, 8, 9) was “still controlled tumor growth”. For the same compound, the tumor growth ([2]; Myd88−/− mice, 3 mg/kg, days 7, 8, 9) was “controlled tumor growth well”, the “therapeutic effect on tumor growth” value ([2]; Rag1 knock out mice, 3 mg/kg, days 7, 8, 9) was “completely diminished” and the tumor growth ([2]; Tmem173KO MC38 tumor cells in C57BL/6 mice, 3 mg/kg, days 7, 8, 9) was “still controlled tumor growth”. For the same compound, the “tumor growth (efficacy)” value ([2]; Tmem173−/− mice, 3 mg/kg, days 7, 8, 9) was “completely lost efficacy”, the tumor growth ([2]; WT C57BL/6 mice, 3 mg/kg daily for three days (days 7, 8, 9), i.p., vs control tumor) was “significantly reduced” and the “mice completely tumor free” value ([2]; WT mice) was 60%. The “re-challenge with MC38 tumor (memory response)” value ([2]; cured mice rested 5 weeks, 10 times more tumor cells, opposite flank) was “spontaneously rejected re-challenged MC38 tumors”, the “tumor volume / tumor growth in advanced tumors” value ([2]; tumor sizes 150-200 mm^3, 6-thio-dG 3 mg/kg days 10, 11, 50 μg anti-PD-L1 days 13 and 17) was “difficult to control” and the “TBK1 phosphorylation in DCs” value [3] was “increase”. For the same compound, the “tumor growth / tumor burden” value ([4]; humanized NSG-SGM3 mice, 6-thio-dG 3 mg/kg day 13 and 14, anti-PD-L1 plus anti-CTLA-4 200 μg i.p. day 16 and 19) was “partially delayed tumor growth”, the tumor growth ([4]; immunocompromised NSG-SGM3 mice, 3 mg/kg, day 7 and day 8) was “did not observe any effect” and the “activation of autophagy in tumor cells” value [5] was “did not see activation of autophagy”. The “side effects in xenograft models” value [6] was “minimal side effects” and the “tumor response in xenograft models” value [6] was “rapid tumor shrinkage or growth arrest”.
